This is an account of results in patent US20130237533A1, “CDK Inhibitors” (G1 THERAPEUTICS, INC., priority 2010, published 2013).

Where only a bound is given, the exact number is not on record here.

The target of one assay is CDK2/cyclinE (Homo sapiens, UniProt P24941). The assay is described as follows: Caliper LabChip kinase enzymatic assay, CDK2/cyclinE. Conditions: Table 2, class symbols; read-out: CDK2/CycE IC50. Type of assay: biochemical. How it is done: Kinase enzymatic reactions were performed in 384-well microplates using a 12-channel Caliper LabChip instrument as a detection device. […] As substrate and product are separated, two peaks of fluorescence are observed. Change in the relative fluorescence intensity of the substrate and product peaks is the parameter measured, reflecting enzyme activity. In the presence of an inhibitor, the ratio between product and substrate is altered. The signal of the product decreases, while the signal of the substrate increases.
Potential inhibitor compounds (as HCl salts) were tested using 12-point dose response curves in single point at the Km, for ATP. The IC50 of each compound was determined using GraphPad Prism.
For `O=C1NCCn2c1cc1cnc(Nc3ccc(N4CCNCC4)cn3)nc12` [Compound 3], the IC50 is above 100 µM. Regarding `CC(C)C1CNC(=O)c2cc3cnc(Nc4ccc(N5CCNCC5)cn4)nc3n21` (centres unmarked) [Compound 8], the IC50 fell in the range of 1 to 100 µM. The same measure, in the same setting: in the case of `CC(C)[C@@H]1CNC(=O)c2cc3cnc(Nc4ccc(N5CCNCC5)cn4)nc3n21` [Compound 9] it was 1 to 100 µM; in that of `CC(C)[C@H]1CNC(=O)c2cc3cnc(Nc4ccc(N5CCNCC5)cn4)nc3n21` [Compound 10], 1 to 100 µM; in that of `CC(C)C[C@H]1CNC(=O)c2cc3cnc(Nc4ccc(N5CCN(C)CC5)cn4)nc3n21` [Compound 12], 1 to 100 µM. On the same count and under the same terms, in the case of `CC(C)C[C@H]1CNC(=O)c2cc3cnc(Nc4ccc(N5CCNCC5)cn4)nc3n21` [Compound 13] it was 1 to 100 µM; in that of `CCC(C)[C@H]1CNC(=O)c2cc3cnc(Nc4ccc(N5CCN(C)CC5)cn4)nc3n21` (some centres unmarked) [Compound 16], 1 to 100 µM; in that of `CCC(C)[C@H]1CNC(=O)c2cc3cnc(Nc4ccc(N5CCNCC5)cn4)nc3n21` (some centres unmarked) [Compound 17], 1 to 100 µM. The same measure, in the same setting: in the case of `CC(C)(C)[C@H]1CNC(=O)c2cc3cnc(Nc4ccc(N5CCNCC5)cn4)nc3n21` [Compound 20] it was 0.1 to 1 µM; in that of `CN1C[C@H](C(C)(C)C)n2c(cc3cnc(Nc4ccc(N5CCNCC5)cn4)nc32)C1=O` [Compound 21], 1 to 100 µM. With `CN1CCN(c2ccc(Nc3ncc4cc5n(c4n3)[C@@H](c3ccccc3)CNC5=O)nc2)CC1` [Compound 22], the IC50 fell in the range of 1 to 100 µM.

As for `O=C1NC[C@H](c2ccccc2)n2c1cc1cnc(Nc3ccc(N4CCNCC4)cn3)nc12` [Compound 23], the IC50 fell in the range of 0.1 to 1 µM. The same measure, in the same setting: in the case of `CC(C)[C@H]1Cn2c(cc3cnc(Nc4ccc(N5CCNCC5)cn4)nc32)C(=O)N1` [Compound 24] it was 1 to 100 µM; in that of `CC(C)[C@@H]1Cn2c(cc3cnc(Nc4ccc(N5CCNCC5)cn4)nc32)C(=O)N1` [Compound 25], 1 to 100 µM; in that of `CC1(C)CNC(=O)c2cc3cnc(Nc4ccc(N5CCNCC5)cn4)nc3n21` [Compound 26], 1 to 100 µM.

Regarding `CN1CCN(c2ccc(Nc3ncc4cc5n(c4n3)C3(CCCC3)CNC5=O)nc2)CC1` [Compound 29], the IC50 was 1 to 100 µM. Regarding `O=C1NCC2(CCCC2)n2c1cc1cnc(Nc3ccc(N4CCNCC4)cn3)nc12` [Compound 30], the IC50 was 1 to 100 µM. Still for that read-out and setting: in the case of `O=C1NCC2(CCCC2)n2c1cc1cnc(Nc3ccc(N4CCOCC4)cn3)nc12` [Compound 32] it was 1 to 100 µM; in that of `O=C1NCC2(CCCC2)n2c1cc1cnc(Nc3ccc(N4CCOCC4)nn3)nc12` [Compound 33], 1 to 100 µM; in that of `O=C1NCC2(CCCC2)n2c1cc1cnc(Nc3ccc(N4CCOCC4)cc3)nc12` [Compound 34], 0.01 to 0.1 µM. With `CC(C)N1CCN(c2ccc(Nc3ncc4cc5n(c4n3)C3(CCCC3)CNC5=O)nc2)CC1` [Compound 35], the IC50 was in the range of 1 to 100 µM. In the case of `CC(C)CN1CCN(c2ccc(Nc3ncc4cc5n(c4n3)C3(CCCC3)CNC5=O)nc2)CC1` [Compound 36], the IC50 was 1 to 100 µM. On the same count and under the same terms, in the case of `CC1CN(c2ccc(Nc3ncc4cc5n(c4n3)C3(CCCC3)CNC5=O)nc2)CC(C)O1` (centres unmarked) [Compound 37] it was 1 to 100 µM; in that of `O=C1NCC2(CCCC2)n2c1cc1cnc(Nc3ccc(N4CCCCC4)cn3)nc12` [Compound 38], 1 to 100 µM.

Take `O=C1NCC2(CCCC2)n2c1cc1cnc(Nc3ccc(N4CCC(N5CCOCC5)CC4)cn3)nc12` [Compound 39]: the IC50 lay in the range of 1 to 100 µM.

With `O=C1NCC2(CCCC2)n2c1cc1cnc(Nc3ccc(N4CCC(N5CCCCC5)CC4)cn3)nc12` [Compound 40], the IC50 was in the range of 1 to 100 µM. The same measure, in the same setting: in the case of `O=C1NCC2(CCCC2)n2c1cc1cnc(Nc3ccc(N4CCSCC4)cn3)nc12` [Compound 41] it was 1 to 100 µM; in that of `CC(C)CC1CNC(=O)c2cc3cnc(Nc4ccc(N5CCNCC5)cn4)nc3n21` (centres unmarked) [Compound 46], 1 to 100 µM.

Still in this assay, the particulars now being: enzyme 0.22 nM, (at the Km for ATP), one hour; 12-point dose response; compounds as HCl salts; read-out: CDK2/cyclinE IC50.
As for `O=C1NCCn2c1cc1cnc(Nc3ccc(N4CCNCC4)cn3)nc12` [Compound 3], the IC50 was above 100 µM.
